{
  "source": "ChEMBL document CHEMBL1201862",
  "about": "“PubChem BioAssay data set” (2004)",
  "experiment_in_all_cases": "NCI-60 cell line screen, 48 h",
  "key": {"SK-MEL-5": {"test_system": "SK-MEL-5"}, "KM-20L2": {"test_system": "KM-20L2"}, "DMS-114": {"test_system": "DMS-114"}, "SNB-75": {"test_system": "SNB-75"}, "786-0": {"test_system": "786-0"}, "HL-60": {"test_system": "HL-60"}, "HT-29": {"test_system": "HT-29"}, "SK-MEL-28": {"test_system": "SK-MEL-28"}, "LXFL 529": {"test_system": "LXFL 529"}, "RXF 393": {"test_system": "RXF 393"}, "SR": {"test_system": "SR"}, "KM12": {"test_system": "KM12"}, "OVCAR-5": {"test_system": "OVCAR-5"}, "SF-295": {"test_system": "SF-295"}, "MOLT-4": {"test_system": "MOLT-4"}, "NCI-H23": {"test_system": "NCI-H23"}, "DMS-273": {"test_system": "DMS-273"}, "UO-31": {"test_system": "UO-31"}, "SW-620": {"test_system": "SW-620"}, "M19-MEL": {"test_system": "M19-MEL"}, "NCI-H226": {"test_system": "NCI-H226"}, "Malme-3M": {"test_system": "Malme-3M"}, "UACC-62": {"test_system": "UACC-62"}, "IGROV-1": {"test_system": "IGROV-1"}, "SF-539": {"test_system": "SF-539"}, "SF-268": {"test_system": "SF-268"}, "XF498": {"test_system": "XF498"}, "OVCAR-3": {"test_system": "OVCAR-3"}, "OVCAR-4": {"test_system": "OVCAR-4"}, "EKVX": {"test_system": "EKVX"}, "OVCAR-8": {"test_system": "OVCAR-8"}, "NCI-H522": {"test_system": "NCI-H522"}, "SK-MEL-2": {"test_system": "SK-MEL-2"}, "CCRF-CEM": {"test_system": "CCRF-CEM"}, "HOP-62": {"test_system": "HOP-62"}, "M14": {"test_system": "M14"}, "TK-10": {"test_system": "TK-10"}, "SN12C": {"test_system": "SN12C"}, "COLO 205": {"test_system": "COLO 205"}, "ACHN": {"test_system": "ACHN"}, "SNB-78": {"test_system": "SNB-78"}, "RPMI-8226": {"test_system": "RPMI-8226"}, "LOX IMVI": {"test_system": "LOX IMVI"}, "HCT-15": {"test_system": "HCT-15"}, "HCT-116": {"test_system": "HCT-116"}, "K562": {"test_system": "K562"}, "NCI-H460": {"test_system": "NCI-H460"}, "A549": {"test_system": "A549"}, "SNB-19": {"test_system": "SNB-19"}},
  "note": "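These data come from cells grown in 96-well plates and exposed to compound for 48 hours at five concentrations. GI50 is the concentration that inhibits growth by half.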 Activity calls are given as the source filed them. Rule as the data show it: active = GI50 up to about 1.1 µM and inactive = higher.",
  "data": [
    {"smiles": "Nc1nc(-c2ccco2)cc(-c2ccc(CO)o2)n1", "values": [
      {"measurement": "GI50", "setting": "SK-MEL-5", "value": "> 100 µM (inactive)"},
      {"measurement": "GI50", "setting": "KM-20L2", "value": "> 100 µM (inactive)"},
      {"measurement": "GI50", "setting": "DMS-114", "value": "> 100 µM (inactive)"},
      {"measurement": "GI50", "setting": "SNB-75", "value": "72.9 µM (inactive)"},
      {"measurement": "GI50", "setting": "786-0", "value": "> 100 µM (inactive)"},
      {"measurement": "GI50", "setting": "HL-60", "value": "> 100 µM (inactive)"},
      {"measurement": "GI50", "setting": "HT-29", "value": "> 100 µM (inactive)"},
      {"measurement": "GI50", "setting": "SK-MEL-28", "value": "> 100 µM (inactive)"},
      {"measurement": "GI50", "setting": "LXFL 529", "value": "> 100 µM (inactive)"},
      {"measurement": "GI50", "setting": "RXF 393", "value": "> 100 µM (inactive)"},
      {"measurement": "GI50", "setting": "SR", "value": "> 100 µM (inactive)"},
      {"measurement": "GI50", "setting": "KM12", "value": "> 100 µM (inactive)"},
      {"measurement": "GI50", "setting": "OVCAR-5", "value": "> 100 µM (inactive)"},
      {"measurement": "GI50", "setting": "SF-295", "value": "> 100 µM (inactive)"},
      {"measurement": "GI50", "setting": "MOLT-4", "value": "> 100 µM (inactive)"},
      {"measurement": "GI50", "setting": "NCI-H23", "value": "> 100 µM (inactive)"},
      {"measurement": "GI50", "setting": "DMS-273", "value": "> 100 µM (inactive)"},
      {"measurement": "GI50", "setting": "UO-31", "value": "60.3 µM (inactive)"},
      {"measurement": "GI50", "setting": "SW-620", "value": "> 100 µM (inactive)"},
      {"measurement": "GI50", "setting": "M19-MEL", "value": "> 100 µM (inactive)"},
      {"measurement": "GI50", "setting": "NCI-H226", "value": "54.3 µM (inactive)"},
      {"measurement": "GI50", "setting": "Malme-3M", "value": "> 100 µM (inactive)"},
      {"measurement": "GI50", "setting": "UACC-62", "value": "> 100 µM (inactive)"},
      {"measurement": "GI50", "setting": "IGROV-1", "value": "> 100 µM (inactive)"},
      {"measurement": "GI50", "setting": "SF-539", "value": "> 100 µM (inactive)"},
      {"measurement": "GI50", "setting": "SF-268", "value": "> 100 µM (inactive)"},
      {"measurement": "GI50", "setting": "XF498", "value": "> 100 µM (inactive)"},
      {"measurement": "GI50", "setting": "OVCAR-3", "value": "> 100 µM (inactive)"},
      {"measurement": "GI50", "setting": "OVCAR-4", "value": "> 100 µM (inactive)"},
      {"measurement": "GI50", "setting": "EKVX", "value": "> 100 µM (inactive)"},
      {"measurement": "GI50", "setting": "OVCAR-8", "value": "> 100 µM (inactive)"},
      {"measurement": "GI50", "setting": "NCI-H522", "value": "85.5 µM (inactive)"},
      {"measurement": "GI50", "setting": "SK-MEL-2", "value": "> 100 µM (inactive)"},
      {"measurement": "GI50", "setting": "CCRF-CEM", "value": "76.4 µM (inactive)"},
      {"measurement": "GI50", "setting": "HOP-62", "value": "> 100 µM (inactive)"},
      {"measurement": "GI50", "setting": "M14", "value": "> 100 µM (inactive)"},
      {"measurement": "GI50", "setting": "TK-10", "value": "> 100 µM (inactive)"},
      {"measurement": "GI50", "setting": "SN12C", "value": "> 100 µM (inactive)"},
      {"measurement": "GI50", "setting": "COLO 205", "value": "> 100 µM (inactive)"},
      {"measurement": "GI50", "setting": "ACHN", "value": "> 100 µM (inactive)"},
      {"measurement": "GI50", "setting": "SNB-78", "value": "> 100 µM (inactive)"},
      {"measurement": "GI50", "setting": "RPMI-8226", "value": "41.4 µM (inactive)"},
      {"measurement": "GI50", "setting": "LOX IMVI", "value": "> 100 µM (inactive)"},
      {"measurement": "GI50", "setting": "HCT-15", "value": "> 100", "unit": "µM"},
      {"measurement": "GI50", "setting": "HCT-116", "value": "> 100 µM (inactive)"},
      {"measurement": "GI50", "setting": "K562", "value": "> 100 µM (inactive)"},
      {"measurement": "GI50", "setting": "NCI-H460", "value": "> 100 µM (inactive)"},
      {"measurement": "GI50", "setting": "A549", "value": "> 100 µM (inactive)"},
      {"measurement": "GI50", "setting": "SNB-19", "value": "65.5 µM (inactive)"}
    ]}
  ]
}
